Results as given in patent US8748566B2, “Pharmacologically active antiviral peptides and methods of use” (priority 2000, dated 2014).
Peptide text beside a SMILES is read from it. * marks the point of attachment. Biotin = O=C1N[C@H]2[C@H](CS[C@H]2CCCCC(=O)*)N1; Ahx = NCCCCCC(=O)O

Assays:
Assay type in all cases: cell-based
hrR3 [1] = test: LacZ+ virus (hrR3) entry assay; conditions: Table 3; read-out: Entry Blocking Activity (IC50)
Experimental: Confluent Vero cell cultures in 96-well microtiter plates were switched to Hepes-buffered serum-free DMEM, cooled on ice to 4° C. for 30 min, and infected with hrR3 for 1 hour at 4° C. in 40 μl of medium. Unattached virus was removed by rinsing with ice-cold medium. Treatments with antiviral peptide SEQ ID NO:1, referred to as EB, or a control peptide which comprised the RRKK tetra-peptide (SEQ ID NO:16) attached to a scrambled version of the membrane transiting peptide RRKKLAALPLVLAAPLAVLA (SEQ ID NO:17) (referred to as EBX), or mock-treatments with peptide-free medium were carried out in serum-free DMEM as indicated. Virus entry was initiated by transferring cultures to 37° C. To inactivate any remaining extracellular virus, cultures were rinsed with PBS and exposed to low pH citrate buffer (40 mM citric acid, 10 mM KCl, 135 mM NaCl, pH 3.0, according to Highlander et al., J. Virol. 61:3356 (1987), for 1 min at 23° C. The citrate was rinsed off with PBS and cultures were maintained in serum-supplemented DMEM until they were fixed with 0.5% gluteraldehyde in 5×PBS for 30 min at 23° C., stained for β-galactosidase activity for 1 hour or overnight at 23° C. with X-gal (Fisher Biotech; BP 1615-1) in 1×PBS containing […], 1.3 mM K4Fe(CN)6, and 1.3 mM K3Fe(CN)6, and scored for the presence of blue lacZ^+ cells.
In these studies, the hrR3 virus was pre-adsorbed to cells for 1 hour at 4° C. before ice cold 25 μM EB or EBX were added in serum-free DMEM. After an additional 1 hour at 4° C., cultures were shifted to 37° C. to initiate virus entry. At 15 min intervals following the temperature shift, any virus remaining outside the cells was inactivated by washing the cultures with low pH citrate buffer. Cultures were then rinsed and returned to peptide-free serum-supplemented DMEM until they were fixed and stained for f-galactosidase 8 hours after the temperature shift.
This conclusion is strengthened by the finding that the EB-sensitive phase of infection with pre-adsorbed virus clearly precedes expression of lacZ genes in hrR3 infected cells (FIG. 7A). Again, hrR3 was pre-adsorbed to cells for 1 hour at 4° C., unattached virus was rinsed off, and cells were kept for an additional hour at 4° C. Cultures were then transferred to 23° C. for 30 min before they were switched to 37° C. The more gradual change to 37° C. allowed cell layers to remain intact through subsequent frequent medium changes. Immediately following viral adsorption, cells were treated with 50 μM EB for 1 hour periods at consecutive 1 hour intervals. Between 1 and 4 hours post-infection, virus entry was inhibited by 70-80%. […] Parallel cultures were immediately fixed after mock-treatments and stained with X-gal. In these cultures, blue (lacZ^+) cells first appeared 7 hours post-infection and their number increased nearly linearly for the next 3 hours (FIG. 7A, (∘)). By 7 hours post-infection, EB ceased to be inhibitory.

virus = test: Anti-free virus activity (Table 3)
hrR3 [2] = test: Virucidal assay
Experimental: […] The treated virus was diluted 200-fold with serum-supplemented DMEM and assayed for infectivity approximately 1 hour later in microtiter wells seeded with Vero cells (3.5×10^4 cells/well) 1 d earlier. Forty or 100 microliter volumes of diluted virus were adsorbed for 1 or 2 h at 37° C. and lacZ^+ cells were scored 8 hours later. In some experiments, aliquots of diluted virus were first dialyzed (Spectra/Por; MWCO 12-14,000) overnight at 4° C. against a 60-fold excess volume of Hepes-buffered serum-supplemented DMEM or forced by syringe through 0.22 μm membranes (Millex-GV; Millipore) before the remaining infectious virus was assayed.

HSV-1 KOS [3] = test: Yield reduction assay (virus production in infected Vero cells)
Experimental: Three days post-infection, Vero cell cultures in microtiter plates were frozen (−80° C.) and thawed (37° C.) three times. Cells were suspended by repeated pipetting and microtiter plates were spun for 10 min at 700×g in a Beckman model TJ-6 tabletop centrifuge. The virus-containing supernates were serially diluted in regular medium and titered on Vero cells. Plaques were counted after staining the monolayers with crystal violet as taught by Grau et al., Invest. Ophthalmol. Vis. Sci. 30:2474 (1989).
Vero cell cultures as prepared in Example 1 were infected with HSV-1 and assayed for virus production as described in Example 1. The antiviral activity of an antiviral peptide according to the present invention EB (SEQ ID NO:1) was compared to the antiviral activity of the current HSV antiviral nucleoside standard, acyclovir. The two peptides were added to the Vero cells one hour prior to infection with HSV.

HSV-1 KOS [4] = test: Plaque reduction assay, HSV-1 KOS infection of Vero cell cultures; conditions: for antiviral activity compared with EB: plaque reduction (FIG. 1D, FIG. 2)
Experimental: The procedures for growing Vero cells and preparing high titer stocks of HSV-1 KOS as described in (Grau et al., Invest. Ophthal. and Vis. Sci. 30: 2474 (1989)) were utilized. Vero cells were maintained in carbonate-buffered DMEM supplemented with 5% calf serum and 5% fetal bovine serum (regular medium). For some studies, cells were switched to serum-free DMEM buffered with 25 mM Hepes (pH 7.4) and allowed to adapt to that medium for 30 min prior to experimental treatments. Vero cells were seeded into wells (0.28 cm^2) of microtiter plates either at 3.5×10^4 cells/well for use 1 day later (8×10^4 cells/well) or at 1×10^4 cells/well for use 3 days later (2×10^5 cells/well).
Confluent Vero cell cultures in microtiter plates were infected for 1 hour at 37° C. in 40 μl of medium. Except where indicated, peptide treatments in 40 μl of medium lasted from 1 hour before through 1 hour after infection. At the end of the adsorption period, the cultures were re-fed with 100 μl of regular medium. Plaque formation was scored 2 days later and the number of plaques scored per well was normalized to the number counted in the absence of peptide. Using an ocular micrometer, plaque size ([…]) was determined by measuring the largest plaque diameter (L) and the diameter at a 90° angle to that (S). The size of each of the first 40 scored plaques was measured except when a plaque included less than 10 rounded cells or touched the side of the well.

[5] = 37° C., read-out: Virucidal Activity 37° C. (IC50)
[6] = 4° C., read-out: Virucidal Activity 4° C. (IC50)

Compound | IC50 (hrR3 [1]) [µM] | IC50 (virus) [µM] | Virucidal Activity 4° C. (IC50) (hrR3 [2]; 4° C.) | IC50 (hrR3 [2]; [5]) [µM] | Virucidal Activity 37° C. (IC50) (hrR3 [2]; 37° C.) | also measured
CC[C@H](C)[C@H](NC(=O)[C@H](CCCCN)NC(=O)[C@@H](NC(=O)[C@H](CCC(N)=O)NC(=O)[C@H](CCCNC(=N)N)NC(=O)CCCCCNC(=O)CCCC[C@@H]1SC[C@@H]2NC(=O)N[C@@H]21)[C@@H](C)CC)C(=O)N[C@@H](Cc1c[nH]c2ccccc12)C(=O)N[C@@H](Cc1ccccc1)C(=O)N1CCC[C@H]1C(=O)N[C@@H](CC(N)=O)C(=O)N[C@@H](CCCNC(=N)N)C(=O)N[C@@H](CCCNC(=N)N)C(=O)N[C@@H](CCSC)C(=O)N[C@@H](CCCCN)C(=O)N[C@@H](Cc1c[nH]c2ccccc12)C(=O)N[C@@H](CCCCN)C(=O)N[C@@H](CCCCN)C(=O)N1CCC[C@H]1C(=O)NCC(=O)N[C@@H](Cc1ccc(O)cc1)C(=O)N[C@@H](C)C(=O)NCC(=O)N[C@@H](C)C(=O)N[C@H](C(=O)N[C@H](C(=O)N[C@@H](CC(N)=O)C(=O)N[C@@H](CC(=O)O)C(=O)N[C@@H](CC(C)C)C(=O)O)C(C)C)C(C)C [bHOM-9, b-RQIKIWFPNRRMKWKK-9] ({Biotin-Ahx}-RQIKIWFPNRRMKWKKPGYAGAVVNDL-OH) | 9 to 12 | 6 | None | 115 |  | 
Nc1nc2c(ncn2COCCO)c(=O)[nH]1 [acyclovir, reference compound] |  |  |  |  |  | antiviral activity, EB compared with acyclovir (HSV-1 KOS [3]; added one hour prior to infection, EB statement for concentrations exceeding 10 μM (FIG. 3)): highest antiviral activity at low dosages
CC(C)C[C@H](NC(=O)[C@H](C)NC(=O)[C@H](CCCCN)NC(=O)[C@H](CC(C)C)NC(=O)[C@H](C)NC(=O)[C@H](CC(C)C)NC(=O)[C@H](CCCCN)NC(=O)[C@H](CC(C)C)NC(=O)[C@H](C)NC(=O)[C@H](CC(C)C)NC(=O)[C@H](CCCCN)NC(=O)CCCCCNC(=O)CCCC[C@@H]1SC[C@@H]2NC(=O)N[C@@H]21)C(=O)N[C@@H](CCCCN)C(=O)N[C@@H](C)C(=O)N[C@@H](C)C(=O)N[C@@H](CC(C)C)C(=O)N[C@@H](CCCCN)C(=O)N[C@@H](CC(C)C)C(=O)N[C@@H](C)C(N)=O [bKLA, b-KLALKLALKALKAALKLA-amide] | 11 | 4.5 |  |  |  | IC50 (hrR3 [2]; [6]): 45 µM
N=C(N)NCCC[C@H](NC(=O)[C@@H](N)CCCNC(=N)N)C(=O)N[C@@H](CCCCN)C(=O)N[C@@H](CCCCN)C(=O)O [R-R-K-K tetramer, R-R-K-K, reference compound] (H-RRKK-OH; N-terminus and C-terminus assumed) |  |  |  |  |  | antiviral activity (HSV-1 KOS [4]; presence of serum, concentrations as high as 200 μM (FIG. 1A)): no antiviral activity
CC(C)C[C@H](NC(=O)[C@H](C)NC(=O)[C@H](CC(C)C)NC(=O)[C@H](CC(C)C)NC(=O)[C@@H](NC(=O)[C@H](C)NC(=O)[C@@H]1CCCN1C(=O)[C@H](CC(C)C)NC(=O)[C@H](CC(C)C)NC(=O)[C@H](C)NC(=O)[C@@H](NC(=O)[C@H](C)NC(=O)[C@H](C)NC(=O)[C@H](CCCCN)NC(=O)[C@H](CCCCN)NC(=O)[C@H](CCCNC(=N)N)NC(=O)[C@H](CCCNC(=N)N)NC(=O)CCCCCNC(=O)CCCC[C@@H]1SC[C@@H]2NC(=O)N[C@@H]21)C(C)C)C(C)C)C(=O)N[C@@H](CC(C)C)C(=O)N[C@@H](C)C(=O)N1CCC[C@H]1C(=O)O [bEB] ({Biotin-Ahx}-RRKKAAVALLPAVLLALLAP-OH) | 15 | 21 |  | 35 |  | antiviral activity compared with EB (HSV-1 KOS [4]): essentially as effective as EB; IC50 (hrR3 [2]; [6]): 110 µM
RQIKIWFPNRRMKWKK [bHOMd] | 7 |  | None | 115 |  | 
CC[C@H](C)[C@H](NC(=O)[C@H](CCCCN)NC(=O)[C@@H](NC(=O)[C@H](CCC(N)=O)NC(=O)[C@H](CCCNC(=N)N)NC(=O)CCCCCNC(=O)CCCC[C@@H]1SC[C@@H]2NC(=O)N[C@@H]21)[C@@H](C)CC)C(=O)N[C@@H](Cc1ccccc1)C(=O)N[C@@H](Cc1ccccc1)C(=O)N1CCC[C@H]1C(=O)N[C@@H](CC(N)=O)C(=O)N[C@@H](CCCNC(=N)N)C(=O)N[C@@H](CCCNC(=N)N)C(=O)N[C@@H](CCSC)C(=O)N[C@@H](CCCCN)C(=O)N[C@@H](Cc1ccccc1)C(=O)N[C@@H](CCCCN)C(=O)N[C@@H](CCCCN)C(N)=O [bHOMFF, b-RQIKI F FPNRRMK F KK-amide] ({Biotin-Ahx}-RQIKIFFPNRRMKFKK-NH2) | 40 | 34 | None |  | None | 
CC(C)C[C@H](NC(=O)[C@H](CC(=O)O)NC(=O)[C@H](CC(N)=O)NC(=O)[C@@H](NC(=O)[C@@H](NC(=O)[C@H](C)NC(=O)CNC(=O)[C@H](C)NC(=O)[C@H](Cc1ccc(O)cc1)NC(=O)CNC(=O)[C@@H]1CCCN1C(=O)[C@H](CCCNC(=N)N)NC(=O)[C@H](CCCNC(=N)N)NC(=O)[C@H](CCCNC(=N)N)NC(=O)[C@H](CCC(N)=O)NC(=O)[C@H](CCCNC(=N)N)NC(=O)[C@H](CCCNC(=N)N)NC(=O)[C@H](CCCCN)NC(=O)[C@H](CCCCN)NC(=O)[C@H](CCCNC(=N)N)NC(=O)CNC(=O)[C@H](Cc1ccc(O)cc1)NC(=O)CCCCCNC(=O)CCCC[C@@H]1SC[C@@H]2NC(=O)N[C@@H]21)C(C)C)C(C)C)C(=O)O [bTAT-9, b-YGRKKRRQRRR-9] ({Biotin-Ahx}-YGRKKRRQRRRPGYAGAVVNDL-OH) | 26 | 8 | None |  | None | 
b-YGRKKRRQRRR-9x [bTAT-9x] | 67 |  | None |  | None | 
NH2-RRKKAAVALLAV LLALLAPP-COOH (H-RRKKAAVALLAVLLALLAPP-OH) [EBPP] |  |  |  |  |  | antiviral activity compared with EB (HSV-1 KOS [4]): twice as active; antiviral activity compared with EB (HSV-1 KOS [3]; yield reduction (FIG. 1E; data not shown)): twice as active
